By IC50 is commonly meant the point on the concentration scale where inhibition reaches its midpoint.

The values below come from patent US20230227466A1, “SUBSTITUTED THIENOPYRIMIDINES THAT INTERACT WITH THE RAS SUPERFAMILY FOR THE TREATMENT OF CANCERS, INFLAMMATORY DISEASES, RASOPATHIES, AND FIBROTIC DISEASE” (SHY Therapeutics, LLC, priority 2020, published 2023).

Where two headings read alike, the source gives them in different places.

The test system of assay [1] is MIA-PaCa-2 pancreatic cancer cell line (KRAS G12C). Put plainly: Cell proliferation assay (CellTiter 96 Aqueous One). It counts as cell-based. As to conditions: Homo sapiens; for IC50: MIA PaCa-2, MIA PaCa-2; for inhibition at 10 µM: MIA PaCa-2, read-out: % inh cell proliferation (10 μM) in MIA PaCa-2. The gist of the method:
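Percent inhibition of proliferation is derived from MTS absorbance data. Cells seeded at 2000–5000 per well were grown overnight before treatment. Compounds, at 10 μM final or in dilution series, stayed on cells for 2–4 days in medium containing 10% FBS and 0.3% DMSO.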

The target in another assay is T1, KRas G12C mutant (Homo sapiens, UniProt P01116, G12C).
T1 construct: made in house
As to the kind of experiment: Ras GTP binding domain inhibition assay (labeled-GTP competition, cell-free). The gist of the method:
(§1)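 His-tagged protein immobilized on Ni-coated wells overnight at 4 °C. Compounds (20 μM single point or serial dilution for IC50) incubated 3 h at RT, ± Sos (residues 556-1049, 10-30 μg/mL) during the final hour. Cy3- or Cy5-GTP (100 nM) then added for 45 min; bound label read by fluorescence after washing.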

A further assay has as its target T2, KRas Q61H mutant (Homo sapiens, UniProt P01116, Q61H).
T2 construct: made in house
The assay is described as above. The gist of the method: as §1

A further assay deals with T3, KRas G12D mutant (Homo sapiens, UniProt P01116, G12D).
T3 construct: made in house
The description is as above. In a few lines: as §1

Setting [2] is: with SOS, read-out: KRas G12C mutant + SOS: % inh.
Setting [3] is: without SOS, read-out: KRas G12C mutant: % inh.
Setting [4] is: with SOS, read-out: KRas Q61H mutant + SOS: % inh.
Setting [5] is: without SOS, read-out: KRas Q61H mutant: % inh.
The mark [6] stands for this setting: with SOS, read-out: KRas G12D mutant + SOS: % inh.
Setting [7] is: without SOS, read-out: KRas G12D mutant: % inh.

As for `O=C(c1nc(O)c2scc(-c3ccccn3)c2n1)N1CCCC1` [Compound 19, (4-Hydroxy-7-(pyridin-2-yl)thieno[3,2-d]pyrimidin-2-yl)(pyrrolidin-1-yl)methanone], the IC50 (in assay [1]; at KRas Q61H mutant (with SOS)) was greater than 10 µM throughout. In assay [1], the inhibition at 10 µM worked out at 0%. Further, the inhibition at 20 µM fell in the range of 1 to 25% at KRas G12C mutant (setting [2]); 1 to 25% on KRas G12C mutant (setting [3]); 1 to 25% at KRas Q61H mutant (setting [4]); 1 to 25% on KRas Q61H mutant (setting [5]); 1 to 25% at KRas G12D mutant (setting [6]); 26 to 50% on KRas G12D mutant (setting [7]).

As to `CC(C)NC(=O)c1nc(O)c2scc(-c3ccccn3)c2n1` [Compound 20, 4-Hydroxy-N-isopropyl-7-(pyridin-2-yl)thieno[3,2-d]pyrimidine-2-carboxamide], the IC50 (in assay [1]; at KRas Q61H mutant (with SOS)) was greater than 10 µM in each case. Also, the inhibition at 10 µM in assay [1] was 1 to 25%. For the same compound, the inhibition at 20 µM is 26 to 50% at KRas G12C mutant (setting [2]); 51 to 75% on KRas G12C mutant (setting [3]); 26 to 50% on KRas Q61H mutant (setting [4]); 26 to 50% at KRas Q61H mutant (setting [5]); 26 to 50% on KRas G12D mutant (setting [6]); 26 to 50% at KRas G12D mutant (setting [7]).

Consider `COCCNC(=O)c1nc(O)c2scc(-c3ccccn3)c2n1` [Compound 21, 4-Hydroxy-N-(2-methoxyethyl)-7-(pyridin-2-yl)thieno[3,2-d]pyrimidine-2-carboxamide], for which the IC50 (in assay [1]; at KRas Q61H mutant (with SOS)) was greater than 10 µM in each case. Further, the inhibition at 10 µM in assay [1] fell in the range of 1 to 25%. Moreover, the inhibition at 20 µM on KRas G12C mutant (setting [2]), on KRas G12C mutant (setting [3]), at KRas Q61H mutant (setting [4]), at KRas Q61H mutant (setting [5]), on KRas G12D mutant (setting [6]) and at KRas G12D mutant (setting [7]) was 26 to 50% each time.

With `O=C(c1nc(O)c2scc(-c3ccccn3)c2n1)N1CCOCC1` [Compound 22, (4-Hydroxy-7-(pyridin-2-yl)thieno[3,2-d]pyrimidin-2-yl)(morpholino)methanone], the IC50 (in assay [1]; at KRas Q61H mutant (with SOS)) was greater than 10 µM each time. For the same compound, in assay [1], the inhibition at 10 µM is 1 to 25%. For the same compound, the inhibition at 20 µM at KRas G12C mutant (setting [2]) is 0%; on KRas G12C mutant (setting [3]) it was 1 to 25%; on KRas Q61H mutant (setting [4]), 1 to 25%; on KRas Q61H mutant (setting [5]), 1 to 25%; at KRas G12D mutant (setting [6]), 0%; at KRas G12D mutant (setting [7]) it was 1 to 25%.

Turning to `O=C(Nc1ccccc1)c1nc(O)c2scc(-c3ccccn3)c2n1` [Compound 23, 4-Hydroxy-N-phenyl-7-(pyridin-2-yl)thieno[3,2-d]pyrimidine-2-carboxamide], the IC50 (in assay [1]; on KRas Q61H mutant (with SOS)) was greater than 10 µM in each case. Further, in assay [1], the inhibition at 10 µM is 0%. Also, the inhibition at 20 µM is 0% on KRas G12C mutant (setting [2]); 1 to 25% on KRas G12C mutant (setting [3]); 1 to 25% at KRas Q61H mutant (setting [4]); 0% at KRas Q61H mutant (setting [5]); 1 to 25% on KRas G12D mutant (setting [6]); 1 to 25% at KRas G12D mutant (setting [7]).

Consider `O=C(Nc1ccccn1)c1nc(O)c2scc(-c3ccccn3)c2n1` [Compound 24, 4-Hydroxy-N,7-di(pyridin-2-yl)thieno[3,2-d]pyrimidine-2-carboxamide], for which the IC50 (in assay [1]; at KRas Q61H mutant (with SOS)) was greater than 10 µM throughout. Moreover, the inhibition at 10 µM in assay [1] lay in the range of 1 to 25%. The inhibition at 20 µM on KRas G12C mutant (setting [2]) is 1 to 25%; on KRas G12C mutant (setting [3]) it was 1 to 25%; on KRas Q61H mutant (setting [4]), 0%; on KRas Q61H mutant (setting [5]) it was 1 to 25%; at KRas G12D mutant (setting [6]), 0%; on KRas G12D mutant (setting [7]), 1 to 25%.

For `Cc1sc2c(O)nc(-c3ccccn3)nc2c1-c1ccccn1` [Compound 26, 6-Methyl-2,7-di(pyridin-2-yl)thieno[3,2-d]pyrimidin-4-ol], the IC50 (in assay [1]; at KRas Q61H mutant (with SOS)) was 5 to 10 µM throughout. The inhibition at 10 µM in assay [1] lay in the range of 51 to 75%. In addition, the inhibition at 20 µM on KRas G12C mutant (setting [2]), on KRas G12C mutant (setting [3]), on KRas Q61H mutant (setting [4]), at KRas Q61H mutant (setting [5]), on KRas G12D mutant (setting [6]) and at KRas G12D mutant (setting [7]) was 76 to 100% throughout.

With `Cn1ccnc1-c1nc(O)c2scc(-c3ncccc3F)c2n1` [Compound 30, 7-(3-Fluoropyridin-2-yl)-2-(1-methyl-1H-imidazol-2-yl)thieno[3,2-d]pyrimidin-4-ol], the IC50 is greater than 10 µM in assay [1] and 1 to 4.99 µM on KRas Q61H mutant (with SOS). In addition, the inhibition at 10 µM in assay [1] was 26 to 50%. The inhibition at 20 µM at KRas G12C mutant (setting [2]) is 76 to 100%; at KRas G12C mutant (setting [3]) it was 51 to 75%; on KRas Q61H mutant (setting [4]), 76 to 100%; at KRas Q61H mutant (setting [5]) it was 51 to 75%; on KRas G12D mutant (setting [6]), 51 to 75%; on KRas G12D mutant (setting [7]), 51 to 75%.

In the case of `CO[C@@H]1CC[C@H](Nc2nc(-c3nccn3C)nc3sc(-c4ccn(C(C)C)n4)c(C)c23)C1` [Compound 31, 6-(1-Isopropyl-1H-pyrazol-3-yl)-N-((1S,3R)-3-methoxycyclopentyl)-5-methyl-2-(1-methyl-1H-imidazol-2-yl)thieno[2,3-d]pyrimidin-4-amine], the figures for the IC50 (in assay [1]; at KRas Q61H mutant (with SOS)) were less than 1 µM and 1 to 4.99 µM, respectively. Further, the inhibition at 10 µM in assay [1] was in the range of 76 to 100%. In addition, the inhibition at 20 µM at KRas G12C mutant (setting [2]) fell in the range of 76 to 100%; at KRas G12C mutant (setting [3]) it was 51 to 75%; at KRas Q61H mutant (setting [4]) it was 76 to 100%; at KRas Q61H mutant (setting [5]) it was 26 to 50%; on KRas G12D mutant (setting [6]), 76 to 100%; at KRas G12D mutant (setting [7]) it was 26 to 50%.

Regarding `CO[C@H]1CC[C@@H](Nc2nc(-c3nccn3C)nc3sc(-c4ccn(C(C)C)n4)c(C)c23)C1` [Compound 32, 6-(1-Isopropyl-1H-pyrazol-3-yl)-N-((1R,3S)-3-methoxycyclopentyl)-5-methyl-2-(1-methyl-1H-imidazol-2-yl)thieno[2,3-d]pyrimidin-4-amine], the values for the IC50 (in assay [1]; at KRas Q61H mutant (with SOS)) were less than 1 µM and 1 to 4.99 µM, respectively. Besides, the inhibition at 10 µM in assay [1] fell in the range of 76 to 100%. Further, the inhibition at 20 µM at KRas G12C mutant (setting [2]) was 76 to 100%; at KRas G12C mutant (setting [3]) it was 51 to 75%; at KRas Q61H mutant (setting [4]), 76 to 100%; on KRas Q61H mutant (setting [5]), 51 to 75%; at KRas G12D mutant (setting [6]) it was 76 to 100%; at KRas G12D mutant (setting [7]), 26 to 50%.

The compound `COCCNc1nc(-c2nccn2C)nc2sc(-c3ccn(C(C)C)n3)c(C)c12` [Compound 35, 6-(1-Isopropyl-1H-pyrazol-3-yl)-N-(2-methoxyethyl)-5-methyl-2-(1-methyl-1H-imidazol-2-yl)thieno[2,3-d]pyrimidin-4-amine] showed an IC50 in assay [1] of 5 to 10 µM. For the same compound, the inhibition at 10 µM in assay [1] fell in the range of 76 to 100%. For the same compound, the inhibition at 20 µM on KRas G12C mutant (setting [2]), on KRas G12C mutant (setting [3]), on KRas Q61H mutant (setting [4]), on KRas Q61H mutant (setting [5]), on KRas G12D mutant (setting [6]) and on KRas G12D mutant (setting [7]) was 76 to 100% each time.

Compound `CO[C@H]1CN(c2nc(-c3nccn3C)nc3sc(-c4ccn(C(C)C)n4)c(C)c23)C[C@H]1OC` [Compound 39, rac-4-((3S,4R)-3,4-Dimethoxypyrrolidin-1-yl)-6-(1-isopropyl-1H-pyrazol-3-yl)-5-methyl-2-(1-methyl-1H-imidazol-2-yl)thieno[2,3-d]pyrimidine] gave an IC50 in assay [1] of 5 to 10 µM. Further, the inhibition at 10 µM in assay [1] lay within 76 to 100%. Moreover, the inhibition at 20 µM is 51 to 75% on KRas G12C mutant (setting [2]); 51 to 75% at KRas G12C mutant (setting [3]); 76 to 100% on KRas Q61H mutant (setting [4]); 51 to 75% at KRas Q61H mutant (setting [5]); 76 to 100% at KRas G12D mutant (setting [6]); 51 to 75% on KRas G12D mutant (setting [7]).

In assay [1], `CO[C@H]1C[C@@H](Nc2nc(-c3nccn3C)nc3sc(-c4ccn(C(C)C)n4)c(C)c23)C[C@H]1OC` [Compound 42, N-((1r,3R,4S)-3,4-Dimethoxycyclopentyl)-6-(1-isopropyl-1H-pyrazol-3-yl)-5-methyl-2-(1-methyl-1H-imidazol-2-yl)thieno[2,3-d]pyrimidin-4-amine] returned an IC50 of 5 to 10 µM. Moreover, the inhibition at 10 µM in assay [1] fell in the range of 51 to 75%. Also, the inhibition at 20 µM at KRas G12C mutant (setting [2]) was in the range of 76 to 100%; at KRas G12C mutant (setting [3]) it was 76 to 100%; on KRas Q61H mutant (setting [4]), 76 to 100%; at KRas Q61H mutant (setting [5]) it was 76 to 100%; on KRas G12D mutant (setting [6]) it was 51 to 75%; on KRas G12D mutant (setting [7]), 76 to 100%.

`CO[C@H]1C[C@H](Nc2nc(-c3nccn3C)nc3sc(-c4ccn(C(C)C)n4)c(C)c23)C[C@H]1OC` [Compound 43, N-((1s,3R,4S)-3,4-Dimethoxycyclopentyl)-6-(1-isopropyl-1H-pyrazol-3-yl)-5-methyl-2-(1-methyl-1H-imidazol-2-yl)thieno[2,3-d]pyrimidin-4-amine] came in with an IC50 in assay [1] of 5 to 10 µM. Further, the inhibition at 10 µM in assay [1] was in the range of 51 to 75%. In addition, the inhibition at 20 µM fell in the range of 76 to 100% on KRas G12C mutant (setting [2]); 1 to 25% at KRas G12C mutant (setting [3]); 76 to 100% on KRas Q61H mutant (setting [4]); 1 to 25% on KRas Q61H mutant (setting [5]); 76 to 100% on KRas G12D mutant (setting [6]); 76 to 100% on KRas G12D mutant (setting [7]).
